Patent publication US11944608B2, “Targeting RNA viruses using inhibitors of METTL3” (priority 2020, dated 2024)
Entries after “also recorded” stand apart in the source; their conditions may differ. Read-outs that look alike come from different tables or passages of the source.

Tests used:
SARS-CoV-2 [1] = assay: microbe, parasite or virus in culture; type: cell-based
hCoV-OC43 [2] = assay: hCoV-OC43 replication and spread in MRCS cells, N protein immunofluorescence, high-content imaging; type: cell-based
Description: FIG. 2. Inhibiting METTL3 in lung fibroblasts suppresses hCOV-OC43 replication. (A) MRCS cells infected with hCOV-OC43 [MOI=0.001] were treated with vehicle (DMSO), control compound (M3c), active METTL3 inhibitor (M3i) or (+) control antiviral remdesivir (rem). Viral spread through the culture was determined by immunofluorescence using an antibody to the hCoV-OC43 nucleocapsid protein (green stain). (B) Quantitation of N protein positive cells from (A) (n=3; **P<0.005; *P<0.05 by t-test for M3c vs M3i). Suppression of viral replication by M3i is evident from >0.5 mM and higher. (C) Test compounds (3 mM) have no significant impact on MRCS viability (n=3) after 48 h of treatment.
To evaluate how METTL3 enzymatic activity impacted coronavirus reproduction, we compared the activity of a specific METTL3 chemical inhibitor (Tzelepis et al., 2019), here termed M3i, to a structurally related control compound M3c unable to inhibit METTL3. […] To measure coronavirus replication, we developed an assay (FIG. 2A) that uses indirect immunofluorescence to detect coronavirus nucleocapsid protein (N) to monitor and quantify virus reproduction and spread using a high-content imaging platform (Cellinsight CX7 LZR). […] In FIG. 2C, the bars from left to right indicate DMSO, M3c, M3i, and remdesivir. […] In FIG. 3A, the bars from left to right represent DMSO, M3c and M3i. In FIG. 3B, the bars represent Not Treated, M3c and M3i. […] It is believed this requirement will extend to other RNA viruses, including coronaviruses with pandemic potential. The data further provide proof in principle that the cellular m^6A modification machinery represents an unexpected host target for anti-coronavirus drug targeting.

MRCS cells = assay: MRCS cell viability (ATP, Celltiterglo2.0); type: cell-based, human
Description: To determine viability, cells were seeded to opaque white 96-well plates. The next day, cells were drug- or vehicle-treated and incubated as in infection experiments (for example, treated-MRC-5 cells were placed for 48 h at 33° C.). ATP levels were then assayed using Celltiterglo2.0 (Promega G9242) according to the manufacturer's instructions. Luciferase signal was read on a Perkin Elmer Envision 2103 multilabel reader, and 24-h 1 μM staurosporine treatment used as a positive control for assay sensitivity.

SARS-CoV-2 [3] = type: cell-based; settings: FIG. 3A
hCoV-OC43 [4] = assay: hCoV-OC43 infectious virus production from MRCS cells by TCID50; type: cell-based; settings: for hCoV-OC43 infectious virus production: TCID50 after 48h, compared to equivalent concentrations of M3c or DMSO; for efficacy compared with remdesivir: hCoV-OC43 infectious virus production
Description: FIG. 8. Inhibiting METTL3 in lung fibroblasts limits hCOV-OC43 infectious virus production. MRCS cells infected with hCOV-OC43 [MOI=0.001] were treated with vehicle (DMSO), control compound (M3c) or active METTL3 inhibitor (M3i2 in A or M3i in B) at the indicated concentration. After 48h, the amount of infectious virus released was quantified by TCID50. N=3. **P<0.01; *P<0.05 by student's t-test.
In FIGS. 7B and 7C, each set of bars from left to right signifies DMSO, M3c and M3i2. […] To determine how METTL3 chemical inhibitors influenced virus production, we quantified and compared infectious virus produced by infected cell cultures treated with vehicle, a control compound (M3c), the two different METTL3 chemical inhibitors (M3i, M3i2) and remdesivir.

viral dsRNA = assay: Viral dsRNA accumulation, immunofluorescence with J2 dsRNA-specific antibody; type: cell-based
[5] = tested on: coronavirus nucleocapsid protein (N); type: cell-based; settings: infected MRCS cells, 24 h treatment / 24 hpi
viral RNA = assay: Viral RNA accumulation by RT-qPCR; type: cell-based; settings: RT-qPCR (not shown)
METTL3 = METTL3 (Homo sapiens, UniProt Q86U44); settings: Tzelepis et al., 2019; cited from earlier work
Sequence of METTL3 (Q9HCE5 whole entry): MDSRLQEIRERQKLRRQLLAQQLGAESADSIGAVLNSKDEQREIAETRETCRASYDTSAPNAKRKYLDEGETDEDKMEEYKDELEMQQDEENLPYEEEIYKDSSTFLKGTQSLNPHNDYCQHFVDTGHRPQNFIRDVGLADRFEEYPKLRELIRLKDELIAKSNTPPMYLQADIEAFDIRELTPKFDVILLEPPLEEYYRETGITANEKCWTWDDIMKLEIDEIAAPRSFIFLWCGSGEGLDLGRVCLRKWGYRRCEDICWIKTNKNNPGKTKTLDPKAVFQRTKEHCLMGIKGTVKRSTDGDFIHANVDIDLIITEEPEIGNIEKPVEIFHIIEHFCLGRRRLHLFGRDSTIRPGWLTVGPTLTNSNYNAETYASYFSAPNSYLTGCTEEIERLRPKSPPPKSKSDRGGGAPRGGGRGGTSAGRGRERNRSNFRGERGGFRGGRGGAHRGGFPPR
Sequence of METTL3 (Q86U44 whole entry): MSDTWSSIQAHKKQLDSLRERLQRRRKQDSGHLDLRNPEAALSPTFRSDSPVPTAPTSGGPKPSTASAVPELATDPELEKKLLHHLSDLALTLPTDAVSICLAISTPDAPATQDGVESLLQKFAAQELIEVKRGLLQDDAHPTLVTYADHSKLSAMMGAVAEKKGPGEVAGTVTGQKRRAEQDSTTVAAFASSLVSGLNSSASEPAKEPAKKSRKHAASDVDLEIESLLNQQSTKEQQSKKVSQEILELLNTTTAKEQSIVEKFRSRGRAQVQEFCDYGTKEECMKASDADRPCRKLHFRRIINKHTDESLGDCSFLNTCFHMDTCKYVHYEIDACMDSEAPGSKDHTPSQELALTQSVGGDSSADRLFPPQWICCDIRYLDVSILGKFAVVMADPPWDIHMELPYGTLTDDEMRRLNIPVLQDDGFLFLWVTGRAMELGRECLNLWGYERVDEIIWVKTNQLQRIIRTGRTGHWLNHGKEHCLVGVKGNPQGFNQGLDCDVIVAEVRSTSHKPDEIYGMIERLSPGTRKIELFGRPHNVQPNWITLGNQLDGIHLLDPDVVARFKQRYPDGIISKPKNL

SARS-CoV-2 [6] = assay: SARS-CoV-2 infectious virus titers from A549+ACE2 cells by plaque assay; type: cell-based; settings: MOI=0.1, 30 μM
Description: FIG. 11. Inhibition of METTL3 activity suppresses β-coronavirus replication in A549+ACE2 cells. […] The percentage of cells infected was established by green fluorescence and normalized to infection of nontreated cells. (B) The viability of A549+ACE2 cells in the presence of concentrations of each compound used in the infection assays shown in A was assessed using a commercial ATP quantitation assay. Cells were maintained at 37° C. in culture medium containing diluted compound for 48 h prior to lysis. Each experiment was conducted three times with internal duplicates, normalized to DMSO-treated cells processed in parallel and plotted as the mean±SEM. (C) Representative montages showing wells from the infections quantified in A that were treated with 30 μM M3c or M3i2 and infected with icSARS-CoV-2-mNG. (D) Infectious virus titers from A549+ACE2 cells infected with icSARS-CoV-2-mNG at MOI=0.1 and treated with 30 μM either M3c or M3i2 was determined by plaque assay.
This concordance further validates the high-content imaging assay as a measure of viral replication and release. Thus, a selective small molecule METTL3 inhibitor effectively suppresses the productive replication of human β-coronavirus, pandemic SARS-CoV-2 in a further human lung cell line.

A549+ACE2 cells = settings: 48 h, FIG. 11B

CACCUACGGACAGCUCAGU[dT][dT] [siRNA #4]
reduction of the percentage of infected (mNeonGreen-positive) cells (SARS-CoV-2 [1]): 89%

GAAACGCGGCGUUUGGGCA[dT][dT] [YTHDF1 siRNA #3]
reduction of the percentage of infected (mNeonGreen-positive) cells (SARS-CoV-2 [1]): 79%

CUGCAAGUAUGUUCACUAUGA[dT][dT [METTL3-1]
hCoV-OC43 replication and spread (N protein positive cells) after METTL3 depletion (hCoV-OC43 [2]; cultures treated with M3c): not | hCoV-OC43 replication and spread (N protein positive cells) after METTL3 depletion (hCoV-OC43 [2]; cultures treated with M3i): increased

CC1(C)CCN(Cc2ccc3nc(Cn4cc(-c5cc(Br)cc6[nH]ncc56)nn4)cn3c2)CC1 [M3i]
concentration at which hCoV-OC43 replication and spread is strongly suppressed (hCoV-OC43 [2]; MRCS cells): ≥ 0.5 µM | hCoV-OC43 reproduction and spread in MRCS cells (hCoV-OC43 [2]; compared to the inactive compound M3c, FIG. 9): reduced | cell viability of siRNA-treated cultures (MRCS cells; MRCS cells, siRNA-treated, FIG. 9C): did not detectably change | effects on MRCS cell viability (MRCS cells; over the dosage range tested (FIG. 2C)): negligible detectable effects | SARS-CoV-2 replication in Calu-3 cells (SARS-CoV-2 [3]): significantly reduced | reduction of hCoV-OC43 replication compared with M3i2 (hCoV-OC43 [4]; FIG. 8): to a greater extent than M3i2 | hCoV-OC43 infectious virus production (hCoV-OC43 [4]): reduced | efficacy compared with remdesivir (hCoV-OC43 [4]; FIG. 8): neither were as efficacious as remdesivir | viral dsRNA accumulation (viral dsRNA): blocks; also recorded: significant reduction | N accumulation / N expression [5]: reduced | accumulation of viral RNA (viral RNA): significant reduction | impact on viability of Calu-3 cell (Calu-3 cells; concentrations of 3 mM or lower): minimal impact | effects on Calu-3 cell viability (Calu-3 cells; over the dosage range tested (FIG. 3B)): negligible detectable effects | selectivity for METTL3 (METTL3): highly selective

GUAACGGAGACCAUCAUUU[dT][dT] [YTHDF1 siRNA #1]
reduction of the percentage of infected (mNeonGreen-positive) cells (SARS-CoV-2 [1]): 68%

AGGAGCCAGCCAAGAAAUCAA[dT][dT] [METTL3-2]
hCoV-OC43 replication and spread (N protein positive cells) after METTL3 depletion (hCoV-OC43 [2]; cultures treated with M3c): not | hCoV-OC43 replication and spread (N protein positive cells) after METTL3 depletion (hCoV-OC43 [2]; cultures treated with M3i): increased

O=C(NCc1cn2cc(CNCC3CCCCC3)ccc2n1)c1cc(=O)n2ccccc2n1 [M3i2]
hCoV-OC43 reproduction and spread through MRCS cells (hCoV-OC43 [2]; 10 μM, compared to control compound M3c): inhibited | effects on cell viability (MRCS cells; 10 μM, MRCS cells (FIG. 7C)): without any discernible effects | hCoV-OC43 infectious virus production (hCoV-OC43 [4]): reduced | efficacy compared with remdesivir (hCoV-OC43 [4]; FIG. 8): neither were as efficacious as remdesivir | IC50 (SARS-CoV-2 [1]; Severe acute respiratory syndrome coronavirus 2, A549+ACE2 cells, read-out: IC50 against SARS-CoV-2): 16.8 µM | icSARS-CoV-2-mNG-infected A549+ACE2 cells (SARS-CoV-2 [1]; higher concentrations, compared with DMSO or M3c): clearly reduced | reduction of SARS-CoV-2 infectious virus production (SARS-CoV-2 [6]): 300 fold | viability of A549+ACE2 cells (A549+ACE2 cells): Minor differences

GUCAAUGGGAGUGGGCAUU[dT][dT] [YTHDF1 siRNA #2]
reduction of the percentage of infected (mNeonGreen-positive) cells (SARS-CoV-2 [1]; siRNA 72 h before infection, MOI=0.1, 48 h, compared with control nonsilencing siRNA): 23%
